According to patent publication US8759014B2, “Methods of obtaining antigen-specific T cell populations” (The United States of America, as represented by the …, priority 2008, dated 2014):

What follows are compounds tested on PBMC from HLA-A2+ metastatic melanoma patients (assay: not given). Details: not given.
In the case of `CC[C@H](C)[C@H](N)C(=O)N[C@H](C(=O)N[C@@H](CC(=O)O)C(=O)N[C@@H](CCC(N)=O)C(=O)N[C@H](C(=O)N1CCC[C@H]1C(=O)N[C@@H](Cc1ccccc1)C(=O)N[C@@H](CO)C(=O)N[C@H](C(=O)O)C(C)C)C(C)C)[C@@H](C)O` [gp100209-217], the “number of patients with at least one microculture with significant peptide reactivity (SI >2)” value is reported as 16 patients.

Same assay, conditions: 17 HLA-A2+ melanoma patients (8 for gp100154-162); 1 μM peptide, 6 days, IL-2 90 IU/ml
`CC[C@H](C)[C@H](N)C(=O)N[C@H](C(=O)N[C@@H](CC(=O)O)C(=O)N[C@@H](CCC(N)=O)C(=O)N[C@H](C(=O)N1CCC[C@H]1C(=O)N[C@@H](Cc1ccccc1)C(=O)N[C@@H](CO)C(=O)N[C@H](C(=O)O)C(C)C)C(C)C)[C@@H](C)O` [gp100209-217] was tested, and the “percent of patients with individual wells with peptide reactivity above background” value was 94%.

The compounds below were run on PBMC sub-populations (assay: HT-qPCR IFN-γ screen of PBMC sub-populations contacted with candidate mesothelin peptides). Details: highest IFN-γ mRNA stimulation index of PBMC sub-populations contacted with the peptide and IL-2; SI <2 = not reactive.
Format: cell-based, human
Method: PBMCs obtained by leukapheresis from HLA-A2+ metastatic melanoma patients are used to establish 96 independent subpopulations cultured in complete medium (CM) consisting of RPMI 1640 supplemented with 10% heat-inactivated fetal bovine serum, 2 mM L-glutamine (Invitrogen, Carlsbad, Calif.), 50 units/mL penicillin (Invitrogen), 50 μg/mL streptomycin (Invitrogen), 50 μg/mL gentamicin (Invitrogen), 10 mM Hepes (Invitrogen), and 250 ng/mL Amphotericin B (Invitrogen), along with 10% heat-inactivated human AB serum (Gemini Bio-Products, Woodland, Calif.). […] The SI reactivities for the 96 wells are stratified by their magnitude and the most reactive subpopulations are selected for limiting dilution cloning.
Mesothelin peptides of the following amino acid sequence are synthesized as essentially described in Example 1: […] (SEQ ID NO: 12), […] (SEQ ID NO: 11), […] (SEQ ID NO: 13), […] (SEQ ID NO: 14), […] (SEQ ID NO: 15), […] (SEQ ID NO: 16), […] (SEQ ID NO: 17), […] (SEQ ID NO: 18), […] (SEQ ID NO: 19), and […] (SEQ ID NO: 20). The peptides are used to contact PBMC sub-populations along with IL-2 in accordance with the procedures described in Example 4. HT-qPCR is performed on a sample of each sub-population to determine the expression of IFN-γ by the contacted PBMC sub-populations.
With LLGFPCAEV the “Highest SI (Day 14)” value was under 2.
With VLLPRLVSC the “Highest SI (Day 14)” value was under 2.
With LPLDLLLFL the “Highest SI (Day 14)” value was under 2.
In the case of SLLFLLFSL, the “Highest SI (Day 14)” value is reported as 119.
For NMNGSEYFV, the “Highest SI (Day 14)” value was “*<2”.
In the case of RLSEPPEDL, the “Highest SI (Day 14)” value is reported as under 2.
For VLPLTVAEV, the “Highest SI (Day 14)” value was under 2.
With FLLFSLGWV the “Highest SI (Day 14)” value was 29.
For LLATQMDRV, the “Highest SI (Day 14)” value was under 2.
With LIFYKKWEL the “Highest SI (Day 14)” value was under 2.
